# According to patent publication US8178506B2, “Oligomeric compounds and compositions for use in modulation of small non-coding RNAs” (Regulus Therapeutics Inc., priority 2003, dated 2012):
# In the oligonucleotide strings, read from the 5' end, every base follows the letter of its sugar. An asterisk marks phosphorothioate; unmarked linkages are phosphodiester. Other units and linkages are bracketed, terminal groups are in braces. A string of capitals states the bases alone. e = 2'-O-(2-methoxyethyl) (MOE); [5mC] = 5-methylcytosine; d = 2'-deoxy (DNA)
# Key:
# Type in all cases: cell-based, human
# HeLa cells = assay: Cell cycle assay in HeLa cells; details: HeLa cells, 150 nM, 48 hours, relative to untreated control
# T47D cells = assay: Cell cycle assay in T47D cells; details: 150 nM, 48 hours, relative to untreated control
# Experimental: BJ cells were routinely cultured in MEM high glucose with 2 mM L-glutamine and Earle's BSS adjusted to contain 1.5 g/L sodium bicarbonate and supplemented with 10% fetal bovine serum, 0.1 mM non-essential amino acids and 1.0 mM sodium pyruvate (all media and supplements from Invitrogen Life Technologies, Carlsbad, Calif.). B16-F10 cells were routinely cultured in DMEM high glucose (Invitrogen Life Technologies, Carlsbad, Calif.) supplemented with 10% fetal bovine serum (Invitrogen Life Technologies, Carlsbad, Calif.). T47D cells were cultured in DMEM High glucose media (Invitrogen Life Technologies, Carlsbad, Calif.) supplemented with 10% fetal bovine serum. […] Cells were plated on collagen-coated 24-well plates (Falcon-Primaria #3047, BD Biosciences, Bedford, Mass.) at approximately 50,000 cells per well and allowed to attach to wells overnight.
# (§1) In further studies, additional cell lines were treated with oligomeric compounds targeted against miRNAs to assess the effects of each oligomeric compound on cell cycling. BJ, B16, T47D, and HeLa cells were cultured and transfected as described above. […] T47Dp53 cells are T47D cells that have been transfected with and selected for maintenance of a plasmid that expresses a wildtype copy of the p53 gene (for example, pCMV-p53; Clontech, Palo Alto, Calif.), using standard laboratory procedures. BJ cells were treated with 200 nM of each oligomeric compound, and T47D, T47Dp53, HeLa, and B16 cells were treated with 150 nM of each oligomeric compound. The human foreskin fibroblast BJ cell line represents a non-cancer cell line, while HeLa, T47D, T47Dp53 cells and the mouse melanoma cell line B16-F10 represent cancerous cell lines. For comparison, oligomeric compounds ISIS 183891 (SEQ ID NO: 847) and ISIS 285717 ([…]; herein incorporated as SEQ ID NO: 857), both targeting the kinesin-like 1/Eg5 mRNA, involved in cell cycling, were used as positive controls. The random-mer ISIS 29848 was used as a negative control. Additionally, the oligomeric compounds ISIS Number 25690 ([…]; herein incorporated as SEQ ID NO: 858) and ISIS Number 25691 ([…]; herein incorporated as SEQ ID NO: 859), targeted to nucleotides 3051-3070 and 3085-3104, respectively, of the mRNA encoding the Drosha RNase III (GenBank Accession NM_013235.2, incorporated herein as SEQ ID NO: 860) were also tested. ISIS Number 25690 and ISIS Number 25691 are 5-10-52′-MOE gapmer compounds, 20 nucleotides in length, with phosphorothioate internucleoside linkages throughout the oligomeric compound. All cytidine residues are 5-methylcytidines. Transfections were performed using the methods described herein. Cells were prepared for flow cytometry 48-hours after oligonucleotide treatment. Results of these studies are shown in Table 35, where data are expressed as percentage of cells in each phase relative to the untreated control cells in that phase.
# T47Dp53 cells = assay: Cell cycle assay in T47Dp53 cells; details: 150 nM, 48 hours, relative to untreated control
# Experimental: as §1
# [1] = system: preadipocytes / differentiating adipocytes; assay: Adipocyte differentiation assay, markers taken together; details: for expression levels of markers of adipocyte differentiation (TG, leptin, aP2, HSL, Glut4, PPARγ): preadipocytes, 250 nM, day nine post-transfection, relative to ISIS-29848; for expression of the other four hallmark genes (HSL, aP2, Glut4, PPARγ) / five markers of adipocyte differentiation / 5 markers of adipocyte differentiation: differentiating adipocytes; for expression of the other four hallmark genes (HSL, aP2, Glut4, PPARγ): control ISIS 342673; for 5 markers of adipocyte differentiation: % of UTC (Table 75)
# Experimental: Oligomeric compounds of the invention are tested for their effects on preadipocyte differentiation. […] For the other adipocyte differentiation markers assayed, an oligomeric compound targeted to PPAR-γ, also known to inhibit adipocyte differentiation, may be used as a positive control.
# Cells are transfected as described herein. […] Untreated control cells receive LIPOFECTIN™ only.
# After the cells have reach confluence (approximately three days), they are exposed for an additional three days to differentiation medium (Zen-Bio, Inc., Research Triangle Park, N.C.) containing a PPAR-γ agonist, IBMX, dexamethasone, and insulin. Cells are then fed adipocyte medium (Zen-Bio, Inc.), which is replaced at 2 or 3 day intervals.
# For assaying adipocyte differentiation, expression of the four hallmark genes, HSL, aP2, Glut4, and PPARγ, as well as triglyceride (TG) accumulation and leptin secretion were measured in adipocytes transfected with the uniform 2′-MOE phosphorothioate (PS) oligomeric compounds previously described. Cells are lysed on day nine post-transfection, in a guanadinium-containing buffer and total RNA is harvested. Real-time PCR is performed (Applied Biosystems, Prism 7700) on the total RNA using the following primer/probe sets for the adipocyte differentiation hallmark genes: (aP2): forward 5′-GGTGGTGGAATGCGTCATG-3′ (SEQ ID NO: 746), reverse 5′-[…]-3′ (SEQ ID NO: 747), probe 5′-FAM-[…]-TAMRA-3′ (SEQ ID NO: 748); (Glut4): forward 5′-GGCCTCCGCAGGTTCTG-3′ (SEQ ID NO: 749), reverse 5′-[…]-3′ (SEQ ID NO: 750), probe 5′-FAM-[…]-TAMRA-3′ (SEQ ID NO: 751); (HSL): forward 5′-ACCTGCGCACAATGACACA-3′ (SEQ ID NO: 752), reverse 5′-[…]-3′ (SEQ ID NO: 753), probe 5′-FAM-[…]-TAMRA-3′ (SEQ ID NO: 754); (PPAR-γ): forward 5′-[…]-3′ (SEQ ID NO: 755), reverse 5′-[…]-3′ (SEQ ID NO: 756), probe 5′-FAM-[…]-TAMRA-3′ (SEQ ID NO: 757). The amount of total RNA in each sample is determined using a Ribogreen Assay (Molecular Probes, Eugene, Oreg.), and expression levels of the adipocyte differentiation hallmark genes were normalized to total RNA. Leptin protein and triglyceride levels as well as mRNA levels for each of the four adipocyte differentiation hallmark genes are expressed relative to control levels (control=treatment with ISIS-29848 (SEQ ID NO: 737)).
# In some embodiments, differentiating adipocytes were treated with uniform 2′-MOE phosphorothioate oligomeric compounds according to the methods described above, and the expression of the four hallmark genes, HSL, aP2, Glut4, and PPARγ, as well as triglyceride (TG) accumulation were measured. […] Undifferentiated adipocytes were also compared as a negative control. […] The effects of TNF-α, also known to inhibit adipocyte differentiation, were also measured.
substance,measurement,setting,value
25690 (antisense eA*eT*e[5mC]*e[5mC]*e[5mC]*dT*dT*dT*d[5mC]*dT*dT*d[5mC]*d[5mC]*dG*d[5mC]*eA*eT*eG*eT*eG) [compound 25690],% cells in cell cycle phase G1,HeLa cells,119%
same,% cells in cell cycle phase G2/M,HeLa cells,87%
same,% cells in cell cycle phase S,HeLa cells,89%
same,% cells in cell cycle phase aneuploid,HeLa cells,140%
same,% cells in cell cycle phase subG1,HeLa cells,64%
same,% cells in cell cycle phase G1,T47D cells,97%
same,% cells in cell cycle phase G2/M,T47D cells,113%
same,% cells in cell cycle phase S,T47D cells,80%
same,% cells in cell cycle phase aneuploid,T47D cells,140%
same,% cells in cell cycle phase subG1,T47D cells,97%
same,% cells in cell cycle phase G1,T47Dp53 cells,97%
same,% cells in cell cycle phase G2/M,T47Dp53 cells,114%
same,% cells in cell cycle phase S,T47Dp53 cells,108%
same,% cells in cell cycle phase aneuploid,T47Dp53 cells,144%
same,% cells in cell cycle phase subG1,T47Dp53 cells,193%
"AACACTGATTTCAAATGGTGCTA (anti-miR; chemistry not fully specified) [ISIS 327876, uniform 2′-MOE PS; targets mir-29b-1]","expression levels of markers of adipocyte differentiation (TG, leptin, aP2, HSL, Glut4, PPARγ)",[1],reduce the expression of several hallmark genes of adipocyte differentiation
"AACTACTTCCAGAGCAGGTGA (anti-miR; chemistry not fully specified) [ISIS 328136, uniform 2′-MOE PS; targets hypothetical miRNA-181]","expression of the other four hallmark genes (HSL, aP2, Glut4, PPARγ)",[1],reduction of expression of the other four hallmark genes
"AACTATACAACCTACTACCTCA (chemistry not fully specified) [ISIS 327903, uniform 2′-MOE PS; targets let-7a-3]","expression levels of markers of adipocyte differentiation (TG, leptin, aP2, HSL, Glut4, PPARγ)",[1],increase in expression levels for several markers of adipocyte differentiation
"ACTCACCGACAGCGTTGAATGTT (chemistry not given here) [ISIS 327904, uniform 2′-MOE PS; targets mir-181a]",five markers of adipocyte differentiation,[1]; % of UTC (Table 55),reduce the expression levels of all five markers of adipocyte differentiation
"AGCCTCCTTCTTCTCGTACTA (anti-miR; chemistry not fully specified) [ISIS 328129, uniform 2′-MOE PS; targets hypothetical miRNA-173]","expression of the other four hallmark genes (HSL, aP2, Glut4, PPARγ)",[1],reduction of expression of the other four hallmark genes
"ATGACTACAAGTTTATGGCCA (chemistry not given here) [ISIS 328121, uniform 2′-MOE PS; targets hypothetical miRNA-161]",5 markers of adipocyte differentiation,[1],significant increases in all 5 markers of adipocyte differentiation
same,five markers of adipocyte differentiation,"[1]; control ISIS 342673 (Tables 17, 18)",increase in all five markers of adipocyte differentiation
"CAGACTCCCAACTGACCAGA (chemistry not fully specified) [ISIS 328382, 5-10-5 2′-MOE gapmer PS; targets the mir-143 pri-miRNA]","expression of the adipocyte differentiation markers, compounds targeting mir-143 miRNA or pri-miRNA compared",[1]; preadipocytes (Table 20),more effective in blocking adipocyte differentiation
"CCAAGTGTTAGAGCAAGATCA (anti-miR; chemistry not fully specified) [ISIS 328126, uniform 2′-MOE PS; targets hypothetical miRNA-170]",5 markers of adipocyte differentiation,[1],increases in 4 of the 5 markers of adipocyte differentiation
"CCATCTTTACCAGACAGTGTT (anti-miR; chemistry not fully specified) [ISIS 327942, uniform 2′-MOE PS; targets mir-141]","expression levels of markers of adipocyte differentiation (TG, leptin, aP2, HSL, Glut4, PPARγ)",[1],significantly reduce the expression levels of 5 of 6 markers of adipocyte differentiation
"CCCAACAACATGAAACTACCTA (chemistry not given here) [ISIS 327909, uniform 2′-MOE PS; targets mir-196-2]",five markers of adipocyte differentiation,[1]; % of UTC (Table 55),increase in three of the five markers of adipocyte differentiation
"CCCCATCTTAGCATCTAAGG (chemistry not fully specified) [ISIS 328691, 5-10-5 2′-MOE gapmer PS; targets mir-145 pri-miRNA]",five markers of adipocyte differentiation,[1]; % of UTC (Table 55),increase in all five markers of adipocyte differentiation
"GTCTGTCAATTCATAGGTCAT (chemistry not given here) [ISIS 327960, uniform 2′-MOE PS; targets mir-215]",five markers of adipocyte differentiation,[1]; % of UTC (Table 55),reduce the expression levels of all five markers of adipocyte differentiation
"ISIS 340352: SEQ ID NO: 1821, targeted to mir-99 (Mourelatos) (CACAAGAUCGGAUCUACGGGUU; all 2'-MOE, all phosphorothioate, methylation of C and T or U not given here)",5 markers of adipocyte differentiation,[1],increases in 4 of the 5 markers of adipocyte differentiation
"ISIS 341798: SEQ ID NO: 1871, targeted to mir-123/mir-126 (antisense GCAUUAUUACUCACGGUACGA; all 2'-MOE, all phosphorothioate, methylation of C and T or U not given here)",5 markers of adipocyte differentiation,[1],significantly reduce the expression levels of 3 of the 5 markers of adipocyte differentiation
"ISIS 344340: SEQ ID NO: 1921, targeted to mir-140 (antisense UGUCCGUGGUUCUACCCUGUGGUA; all 2'-MOE, all phosphorothioate, methylation of C and T or U not given here)",5 markers of adipocyte differentiation,[1],significantly reduce the expression levels of 3 of the 5 markers of adipocyte differentiation
"ISIS 344615: SEQ ID NO: 1900, targeted to mir-244* (Kosik) (antisense UCAACAAAAUCACUGAUGCUGGA; all 2'-MOE, all phosphorothioate, methylation of C and T or U not given here)",5 markers of adipocyte differentiation,[1],significant increases in all 5 markers of adipocyte differentiation
